Results on five compounds are retold here after patent US20250019375A1, “BENZOTHIAZOLE DYES” (Detect, Inc., priority 2023, published 2025).

Data set [1] has as its system double stranded DNA (dsDNA). In words: Absorption/emission spectra of dyes with dsDNA. Type of data set: physicochemical. The settings on record: for Stokes shift: 2 μM dye + 2 μM hairpin DNA; for Stokes shift / λem: pH 8.8 isoamplification buffer; for λabs: absorption recorded at 25±2° C.; for λem: fluorescence at 62±2° C. As to the method: FIG. 6A-F show absorption/emission spectra of dyes with double stranded DNA (dsDNA).
Fluorescence readings (FIGS. 6A-F) were performed using 10 mm path length, 700 μL quartz cuvettes on Horiba Fluorolog-Q fluorometer instrument. All measurements were taken at elevated temperature (62±2° C.) in pH 8.8 isoamplification buffer containing 20 mM Tris-HCl. For each measurement, 2 μM of dye was combined with 2 μM of hairpin DNA. Absorption spectra were recorded at ambient temperature (25±2° C.) on a DeNovix DS-11 spectrophotometer instrument. Normalized spectra are shown for clarity. The benzothiazole dye compounds have large Stokes shift >40 nm, which allows a substantial portion of the output fluorescence to pass through the filter covering the photodiode detection component of the device.

The test system of data set [2] is Neisseria gonorrhoeae (AQ10). Nature of the data set: qLAMP assay, Neisseria gonorrhoeae (AQ10), time to positive (Tp). Type of data set: biochemical. As to the method: Compounds were added to the LAMP reaction mixture containing target-specific primers, dNTPs, DNA polymerase, reverse transcriptase, and the target RNA sequence. This reaction mixture was incubated at 62° C. (or the specified temperature (FIG. 4)) for at least 50 minutes and the increase in fluorescence was assessed to determine the time to positivity (Tp). Data shown in FIGS. 1A-B support that these compounds are compatible with LAMP assays at concentrations up to 16 μM.
For the Neisseria gonorrhoeae (AQ10), there is detrimental impact on Tp observed with Compound 5 at ≥8 μM where a delay in Tp is observed.
Data shown is under clean and eluted vaginal swabs (contrived conditions). Good performance is observed at ≥61° C. There is detrimental impact on performance at <60° C. (delay in Tp).

Data set [3] is described as follows: Accelerated stability of lyophilized dye, assayed by HPLC. Type of data set: physicochemical. As to the method: It was also determined that Compound 3 is stable under accelerated stability conditions from lyophilized chemistry (FIG. 5). As assayed by HPLC, Compound 3 is stable under these conditions at the 3-month time point (98.7±0.33% remaining), corresponding to 6 months stability at room temperature (15-30° C.).

Where [4] appears, read: clean and eluted vaginal swabs (contrived conditions).

Turning to `COc1ccc2c(c1)S/C(=C\c1cc[n+](C)c(N3CCOCC3)c1)N2C` [Compound 3], in data set [1], the Stokes shift is given as 50 nm, the λabs came to 448 nm and the λem stood at 498 nm. In data set [2] (setting [4]), the “temperature of good performance” value was at least 61 °C and the “temperature with detrimental impact on performance (delay in Tp)” value is below 60 °C. Besides, in data set [3] (40° C., lyophilized, 3-month time point, HPLC), the “% remaining” value is 98.7±0.33%. For the same compound, the “corresponding stability at room temperature” value in data set [3] (room temperature (15-30° C.), extrapolated from 3 months accelerated conditions) is reported as 6 months.
Turning to `COc1ccc2c(c1)S/C(=C\c1cc[n+](C)c(-c3ccccc3)c1)N2C` [Compound 5], the “concentration with detrimental impact on Tp (delay in Tp)” value in data set [2] (Neisseria gonorrhoeae (AQ10) LAMP, 62° C.) is at least 8 µM.
For the compound `CN1/C(=C/c2cc[n+](C)c(N3CCOCC3)c2)Sc2ccccc21` [Compound 8], in data set [1], the Stokes shift was found to be 38 nm, the λabs is reported as 442 nm and the λem is given as 480 nm.
As for `CN(C)c1cc(/C=C2\Sc3ccccc3N2C)cc[n+]1C` [Compound 10], in data set [1], the Stokes shift worked out at 38 nm, the λabs stood at 443 nm and the λem is 481 nm.
As to `COc1ccc2c(c1)S/C(=C\c1cc[n+](C)c3ccccc13)N2C` [Compound 11], in data set [1], the Stokes shift worked out at 43 nm, the λabs turned out to be 510 nm and the λem stood at 553 nm.
